# Results taken from ChEMBL document CHEMBL1132001, “Generation of an Ugi library of phosphate mimic-containing compounds and identification of novel dual specific phosphatase inhibitors” (Bioorg Med Chem Lett, 1999).
# Target: Dual specificity protein phosphatase 3 (Homo sapiens) (UniProt P51452)
# Experiment: Compound was evaluated for its activity against VHR
# Chain of Dual specificity protein phosphatase 3 (Homo sapiens) (P51452 whole entry, looked up): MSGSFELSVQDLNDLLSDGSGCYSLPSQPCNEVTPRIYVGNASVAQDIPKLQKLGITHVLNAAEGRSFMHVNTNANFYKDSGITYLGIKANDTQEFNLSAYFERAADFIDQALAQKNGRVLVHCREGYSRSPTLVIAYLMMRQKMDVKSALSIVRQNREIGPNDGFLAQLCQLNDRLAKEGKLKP
row,SMILES,Activity [µM]
1,CC(C)=CCCC(C)C(C(=O)NC1CCCCC1)N(CCc1c[nH]c2ccccc12)C(=O)c1ccc(CP(=O)(O)O)cc1 (centres undefined),17
2,Cc1ccc(S(=O)(=O)CNC(=O)C(c2ccc(OCP(=O)(O)O)cc2)N(CCc2c[nH]c3ccccc23)C(=O)c2cc(Br)cc(Br)c2O)cc1 (centres undefined),> 120
3,O=C(NC(Cc1ccc(O)cc1)C(=O)N(CCc1c[nH]c2ccccc12)C(C(=O)NCCN1CCOCC1)c1ccc(OCP(=O)(O)O)cc1)OCC1c2ccccc2-c2ccccc21 (centres undefined),6.1

# The next lines start with the values.
row,Activity [µM],SMILES
1,19,CC(C)=CCCC(C)C(C(=O)NC1CCCCC1)N(Cc1ccc2c(c1)OCO2)C(=O)c1ccc(CP(=O)(O)O)cc1 (centres undefined)
2,> 9,O=C(O)CNC(=O)C(c1nccs1)N(Cc1ccc2c(c1)OCO2)C(=O)c1ccc(CP(=O)(O)O)cc1 (centres undefined)
3,5,O=C(O)C(Oc1ccc(C(=O)N(Cc2ccc3c(c2)OCO3)C(C(=O)NC2CCCCC2)c2ccc(OCP(=O)(O)O)cc2)cc1)C(=O)O (centres undefined)
4,11,O=C(O)C(Oc1ccc(C(C(=O)NC2CCCCC2)N(Cc2ccc3c(c2)OCO3)C(=O)c2ccc(CP(=O)(O)O)cc2)cc1)C(=O)O (centres undefined)
5,87,O=C(NC1CCCCC1)C(c1ccnc2ccccc12)N(CCc1c[nH]c2ccccc12)C(=O)c1ccc(CP(=O)(O)O)cc1 (centres undefined)
6,9,O=C(O)C(Oc1ccc(C(=O)N(Cc2ccc3c(c2)OCO3)C(C(=O)NC2CCCCC2)c2ccc(OC(C(=O)O)C(=O)O)cc2)cc1)C(=O)O (centres undefined)

# System: not listed separately
# Experiment: Compound was evaluated for its activity against PTP1B (a tyrosine phosphatase)
row,SMILES,Activity [µM]
1,CC(C)=CCCC(C)C(C(=O)NC1CCCCC1)N(CCc1c[nH]c2ccccc12)C(=O)c1ccc(CP(=O)(O)O)cc1 (centres undefined),61
2,Cc1ccc(S(=O)(=O)CNC(=O)C(c2ccc(OCP(=O)(O)O)cc2)N(CCc2c[nH]c3ccccc23)C(=O)c2cc(Br)cc(Br)c2O)cc1 (centres undefined),95
3,O=C(NC(Cc1ccc(O)cc1)C(=O)N(CCc1c[nH]c2ccccc12)C(C(=O)NCCN1CCOCC1)c1ccc(OCP(=O)(O)O)cc1)OCC1c2ccccc2-c2ccccc21 (centres undefined),16

# Further lines, results first:
row,Activity [µM],SMILES
1,73,CC(C)=CCCC(C)C(C(=O)NC1CCCCC1)N(Cc1ccc2c(c1)OCO2)C(=O)c1ccc(CP(=O)(O)O)cc1 (centres undefined)
2,> 96,O=C(O)CNC(=O)C(c1nccs1)N(Cc1ccc2c(c1)OCO2)C(=O)c1ccc(CP(=O)(O)O)cc1 (centres undefined)
3,82,O=C(O)C(Oc1ccc(C(=O)N(Cc2ccc3c(c2)OCO3)C(C(=O)NC2CCCCC2)c2ccc(OCP(=O)(O)O)cc2)cc1)C(=O)O (centres undefined)
4,107,O=C(O)C(Oc1ccc(C(C(=O)NC2CCCCC2)N(Cc2ccc3c(c2)OCO3)C(=O)c2ccc(CP(=O)(O)O)cc2)cc1)C(=O)O (centres undefined)
5,> 160,O=C(NC1CCCCC1)C(c1ccnc2ccccc12)N(CCc1c[nH]c2ccccc12)C(=O)c1ccc(CP(=O)(O)O)cc1 (centres undefined)
6,89,O=C(O)C(Oc1ccc(C(=O)N(Cc2ccc3c(c2)OCO3)C(C(=O)NC2CCCCC2)c2ccc(OC(C(=O)O)C(=O)O)cc2)cc1)C(=O)O (centres undefined)

# Organism: Homo sapiens
# Experiment: Inhibition of dual specificity Cell division cycle 25
row,SMILES,Activity [µM]
1,CC(C)=CCCC(C)C(C(=O)NC1CCCCC1)N(CCc1c[nH]c2ccccc12)C(=O)c1ccc(C(F)(F)P(=O)(O)O)cc1 (centres undefined),27
2,CC(C)=CCCC(C)C(C(=O)NC1CCCCC1)N(CCc1c[nH]c2ccccc12)C(=O)c1ccc(CP(=O)(O)O)cc1 (centres undefined),23
3,CC(C)/C=C\CC(C)C(C(=O)NCC(=O)O)N(CCc1c[nH]c2ccccc12)C(=O)c1cc(Br)cc(Br)c1O (centres undefined),15
4,Cc1ccc(S(=O)(=O)CNC(=O)C(c2ccc(OCP(=O)(O)O)cc2)N(CCc2c[nH]c3ccccc23)C(=O)c2cc(Br)cc(Br)c2O)cc1 (centres undefined),10
5,O=C(NC(Cc1ccc(O)cc1)C(=O)N(CCc1c[nH]c2ccccc12)C(C(=O)NCCN1CCOCC1)c1ccc(OCP(=O)(O)O)cc1)OCC1c2ccccc2-c2ccccc21 (centres undefined),8

# Further lines, results first:
row,Activity [µM],SMILES
1,23,CC(C)=CCCC(C)C(C(=O)NC1CCCCC1)N(Cc1ccc2c(c1)OCO2)C(=O)c1ccc(CP(=O)(O)O)cc1 (centres undefined)
2,35,O=C(O)CNC(=O)C(c1nccs1)N(Cc1ccc2c(c1)OCO2)C(=O)c1ccc(CP(=O)(O)O)cc1 (centres undefined)
3,0.7,O=C(O)C(Oc1ccc(C(=O)N(Cc2ccc3c(c2)OCO3)C(C(=O)NC2CCCCC2)c2ccc(OCP(=O)(O)O)cc2)cc1)C(=O)O (centres undefined)
4,3,O=C(O)C(Oc1ccc(C(C(=O)NC2CCCCC2)N(Cc2ccc3c(c2)OCO3)C(=O)c2ccc(CP(=O)(O)O)cc2)cc1)C(=O)O (centres undefined)
5,16,O=C(NC1CCCCC1)C(c1ccnc2ccccc12)N(CCc1c[nH]c2ccccc12)C(=O)c1ccc(CP(=O)(O)O)cc1 (centres undefined)
6,3,O=C(O)C(Oc1ccc(C(=O)N(Cc2ccc3c(c2)OCO3)C(C(=O)NC2CCCCC2)c2ccc(OC(C(=O)O)C(=O)O)cc2)cc1)C(=O)O (centres undefined)
